Data on 27 compounds can be found in patent US20150208658A1, “METHODS OF SOIL PEST CONTROL” (Syngenta Participations AG, priority 2012, published 2015).

Read-outs that look alike come from different tables or passages of the source. Bounds are passed on as bounds.

The test system of data set [1] is Diabrotica balteata. As to the kind of experiment: Diabrotica balteata (Corn Rootworm): 24-well microtiter plate with artificial diet, L2 larvae, larval mortality. It is filed as in vivo. Conditions: for pest or weed control at 50 µg/mL / pest or weed control at 200 ppm: Diabrotica balteata, 120 h; for pest or weed control at 50 µg/mL: read-out: control of Diabrotica balteata at 50 ppm or less; for pest or weed control at 200 ppm: read-out: control of Diabrotica balteata; for Control/%: comparative example. As to the method:
Diabrotica balteata (Corn Rootworm)
[…] After drying, the MTP's are infested with L2 larvae (6-10 per well). After an incubation period of 5 days, samples are checked for larval mortality.
Compounds are tested according to the above method.

Data set [2] relates to Diabrotica balteata. Put plainly: Diabrotica balteata (Banded Cucumber Beetle): treated corn seeds sown in soil pots, seedlings infested with 3rd stage larvae. It is filed as in vivo. The settings on record: seed treatment, 6 days incubation. The protocol: Diabrotica balteata (Banded Cucumber Beetle)
Treated corn seeds are sown in a 350 ml pot filled with soil. Two weeks after sowing phytotoxicity (lack of shoot—missing emergence) in comparison to the control is estimated and expressed in percentage. Furthermore, corn seedlings are infested with 3rd stage larvae of Diabrotica balteata. After an incubation period of 6 days survived larvae are counted and larval growth is assessed. Larval growth indicates the number of larvae with size differences between the larvae in the control and treatments, expressed in percentage.

Where [3] appears, read: 50 ppm or less, L2 larvae, 5 days.
The mark [4] stands for this setting: application rate 200 ppm (concentration in well 18 ppm), L2 larvae, 5 days.

Consider `CC(=O)NCc1ccc(N2CCC(c3cc(Cl)cc(Cl)c3)(C(F)(F)F)C2)cc1C` (stereo not shown) [Compound A4, N-{4-[3-(3,5-dichlorophenyl)-3-(trifluoromethyl)pyrrolidin1-yl]-2-methyl-benzyl)acetamide], for which the pest or weed control at 50 µg/mL in the data set with Diabrotica balteata [1] (setting [3]) is more than 80%. The pest or weed control at 200 ppm in the data set with Diabrotica balteata [1] (setting [4]) is not below 80%.

For the compound `O=C(CC(F)(F)F)NC1CCc2cc(C3=NOC(c4cc(Cl)cc(Cl)c4)(C(F)(F)F)C3)ccc21` (stereo not shown) [drawing 74], the Control/% in the data set on Diabrotica balteata [1] (application rate 3 ppm) and with Diabrotica balteata [1] (application rate 12.5 ppm) was 100% throughout.

For `N#Cc1cc(C2=NOC(c3cc(Cl)c(F)c(Cl)c3)(C(F)(F)F)C2)ccc1-n1ccc(C(F)(F)F)n1` (stereo not shown) [Compound D11], the “control of Diabrotica balteata” value with Diabrotica balteata [1] (setting [4]) is reported as “No activity”.

For `CCC(=O)NC1CCc2cc(N3CCC(c4cc(C(F)(F)F)cc(C(F)(F)F)c4)(C(F)(F)F)C3)ccc21` (stereo not shown) [Compound E6, N-[5-[3-[3,5-bis(trifluoromethyl)phenyl]-3-(trifluoromethyl)pyrrolidin-1-yl]indan-1-yl]propanamide], in the data set on Diabrotica balteata [1] (setting [3]), the pest or weed control at 50 µg/mL is more than 80%. Moreover, the pest or weed control at 200 ppm in the data set on Diabrotica balteata [1] (setting [4]) is not below 80%.

On to `CC(=O)N[C@@H](C)c1ccc(C2=NOC(c3cc(Cl)cc(Cl)c3)(C(F)(F)F)C2)cc1` (stereo partly drawn) [Compound B2, N-[(1S)-1-[4-[5-(3,5-dichlorophenyl)-5-(trifluoromethyl)-4H-isoxazol-3-yl]phenyl]ethyl]acetamide], for which, in the data set with Diabrotica balteata [1], the pest or weed control at 200 ppm was not below 80% and the pest or weed control at 50 µg/mL was more than 80%.

For the compound `N#Cc1cc(C2=NOC(c3cc(Cl)c(F)c(Cl)c3)(C(F)(F)F)C2)ccc1-n1cncn1` (stereo not shown) [Compound C3], in the data set with Diabrotica balteata [2] (application rate 1 mg/seed), the “% larval mortality” value is recorded as 83%. For the same compound, in the data set with Diabrotica balteata [1], the pest or weed control at 200 ppm was not below 80% and the pest or weed control at 50 µg/mL is more than 80%.

Take `CCC(=O)NC1CCc2cc(C3=NOC(c4cc(Cl)cc(Cl)c4)(C(F)(F)F)C3)ccc21` (stereo not shown) [Compound E1]: the “% larval mortality” value in the data set with Diabrotica balteata [2] (application rate 0.3 mg/seed) came to 83%.

`CC(C)C(=O)NCc1ccc(C2=NOC(c3cc(Cl)cc(Cl)c3)(C(F)(F)F)C2)cc1Cl` (stereo not shown) [Compound A2]: in the data set on Diabrotica balteata [1], the pest or weed control at 200 ppm is not below 80% and the pest or weed control at 50 µg/mL was more than 80%.

In the case of `O=C(NCC(F)(F)F)N1CCc2cc(C3=NOC(c4cc(Cl)cc(Cl)c4)(C(F)(F)F)C3)ccc21` (stereo not shown) [reference compound], in the data set with Diabrotica balteata [1] (application rate 12.5 ppm), the Control/% was 65%.

On to `CCC(=O)NCc1ccc(C2=NOC(c3cc(Cl)cc(Cl)c3)(C(F)(F)F)C2)cc1Cl` (stereo not shown) [Compound A3], for which, in the data set on Diabrotica balteata [1], the pest or weed control at 200 ppm was not below 80% and the pest or weed control at 50 µg/mL is more than 80%.

For `O=C(CC(F)(F)F)NC1CCc2cc(C3=NOC(c4cc(Cl)cc(Cl)c4)(C(F)(F)F)C3)ccc21` (stereo not shown) [Compound E7], the “% larval mortality” value with Diabrotica balteata [2] (application rate 0.3 mg/seed) stood at 60%.

Regarding `N#Cc1cc(C2=NOC(c3cc(Cl)cc(Cl)c3)(C(F)(F)F)C2)ccc1-n1cncn1` (stereo not shown) [drawing 76], the Control/% in the data set with Diabrotica balteata [1] (application rate 3 ppm) stood at 65%; in the data set with Diabrotica balteata [1] (application rate 12.5 ppm), 100%.

Turning to `N#Cc1cc(C2=NOC(c3cc(Cl)cc(Cl)c3)(C(F)(F)F)C2)ccc1-n1cncn1` (stereo not shown) [Compound C4], the “% larval mortality” value with Diabrotica balteata [2] (application rate 1 mg/seed) was 100%.

`O=C(NC1CCc2cc(C3=NCC(c4cc(Cl)cc(Cl)c4)(C(F)(F)F)C3)ccc21)C1CC1` (stereo not shown) [Compound E4, N-[5-[3-(3,5-dichlorophenyl)-3-(trifluoromethyl)-2,4-dihydropyrrol-5-yl]indan-1-yl]cyclopropanecarboxamide]: the pest or weed control at 50 µg/mL with Diabrotica balteata [1] (setting [3]) was more than 80%. In the data set with Diabrotica balteata [1] (setting [4]), the pest or weed control at 200 ppm is not below 80%.

As to `FC(F)(F)C1(c2cc(Cl)cc(Cl)c2)CC(c2ccc(-n3cncn3)cc2)=NO1` (stereo not shown) [reference compound], the Control/% in the data set on Diabrotica balteata [1] (application rate 3 ppm) is 0%; in the data set with Diabrotica balteata [1] (application rate 12.5 ppm), 85%.

`N#Cc1cc(C2=NOC(c3cc(Cl)c(F)c(Cl)c3)(C(F)(F)F)C2)ccc1-n1nc(C(F)(F)F)cc1C(F)(F)F` (stereo not shown) [Compound D10]: the “control of Diabrotica balteata” value in the data set with Diabrotica balteata [1] (setting [4]) was “No activity”.

Take `N#Cc1cc(C2=NCC(c3cc(Cl)c(Cl)c(Cl)c3)(C(F)(F)F)C2)ccc1-n1cncn1` (stereo not shown) [Compound C2, 2-(1,2,4-triazol-1-yl)-5-[3-(3,4,5-trichlorophenyl)-3-(trifluoromethyl)-2,4-dihydropyrrol-5-yl]benzonitrile]: the “% larval mortality” value with Diabrotica balteata [2] (application rate 0.3 mg/seed) is 44%. Moreover, the pest or weed control at 50 µg/mL in the data set on Diabrotica balteata [1] (setting [3]) was more than 80%. For the same compound, the pest or weed control at 200 ppm with Diabrotica balteata [1] (setting [4]) was not below 80%.

Consider `C[C@H](NC(=O)C1CC1)c1ccc(N2CCC(c3cc(Cl)cc(Cl)c3)(C(F)(F)F)C2)cc1` (stereo partly drawn) [Compound B1, N-[(1S)-1-[4-[3-(3,5-dichlorophenyl)-3-(trifluoromethyl)pyrrolidin-1-yl]phenyl]ethyl]cyclopropanecarboxamide], for which the pest or weed control at 50 µg/mL in the data set with Diabrotica balteata [1] (setting [3]) is more than 80%. For the same compound, in the data set on Diabrotica balteata [1] (setting [4]), the pest or weed control at 200 ppm was not below 80%.

Regarding `Cc1cc(C2=NOC(c3cc(Cl)cc(Cl)c3)(C(F)(F)F)C2)ccc1-n1cccn1` (stereo not shown) [Compound D5], the “control of Diabrotica balteata” value in the data set on Diabrotica balteata [1] (setting [4]) is “lower control”.

For `C[C@H](NC(=O)C1CC1)c1ccc(N2CCC(c3cc(C(F)(F)F)cc(C(F)(F)F)c3)(C(F)(F)F)C2)cc1` (stereo partly drawn) [Compound B4, N-[(1S)-1-[4-[3-[3,5-bis(trifluoromethyl)phenyl]-3-(trifluoromethyl)pyrrolidin-1-yl]phenyl]ethyl]cyclopropanecarboxamide], the “% larval mortality” value with Diabrotica balteata [2] (application rate 0.3 mg/seed) is reported as 78%. The pest or weed control at 50 µg/mL in the data set with Diabrotica balteata [1] (setting [3]) was more than 80%. Moreover, the pest or weed control at 200 ppm in the data set with Diabrotica balteata [1] (setting [4]) is not below 80%.

Consider `N#Cc1cc(C2=NOC(c3cc(Cl)c(F)c(Cl)c3)(C(F)(F)F)C2)ccc1-n1cc(F)cn1` (stereo not shown) [Compound D2], for which, in the data set with Diabrotica balteata [2] (application rate 1 mg/seed), the “% larval mortality” value worked out at 100%.

Take `N#Cc1cnn(-c2ccc(C3=NOC(c4cc(Cl)c(F)c(Cl)c4)(C(F)(F)F)C3)cc2C#N)c1` (stereo not shown) [Compound D1]: in the data set on Diabrotica balteata [2] (application rate 1 mg/seed), the “% larval mortality” value turned out to be 100%.

With `CCC(=O)NC1CCc2cc(C3=NCC(c4cc(Cl)cc(Cl)c4)(C(F)(F)F)C3)ccc21` (stereo not shown) [Compound E3, N-[5-[3-(3,5-dichlorophenyl)-3-(trifluoromethyl)-2,4-dihydropyrrol-5-yl]indan-1-yl]propanamide], the pest or weed control at 50 µg/mL in the data set on Diabrotica balteata [1] (setting [3]) is more than 80%. The pest or weed control at 200 ppm in the data set with Diabrotica balteata [1] (setting [4]) is not below 80%.

On to `O=C(NC1CCc2cc(C3=NCC(c4cc(Cl)cc(Cl)c4)(C(F)(F)F)C3)ccc21)C(F)(F)F` (stereo not shown) [Compound E5, N-[5-[3-(3,5-dichlorophenyl)-3-(trifluoromethyl)-2,4-dihydropyrrol-5-yl]indan-1-yl]-2,2,2-trifluoro-acetamide], for which, in the data set on Diabrotica balteata [1] (setting [3]), the pest or weed control at 50 µg/mL is more than 80%. In addition, in the data set on Diabrotica balteata [1] (setting [4]), the pest or weed control at 200 ppm is not below 80%.

Consider `CC(=O)NCc1ccc(C2=NCC(c3cc(Cl)cc(Cl)c3)(C(F)(F)F)C2)cc1Br` (stereo not shown) [Compound A5, N-{2-bromo-4-[4-(3,5-dichlorophenyl)-4-trifluoromethyl-4,5-dihydro-3H-pyrrol-2yl]-benzyl}acetamide], for which the pest or weed control at 50 µg/mL in the data set with Diabrotica balteata [1] (setting [3]) is more than 80%. Also, the pest or weed control at 200 ppm in the data set on Diabrotica balteata [1] (setting [4]) was not below 80%.

For the compound `CC(=O)NC1CCc2cc(C3=NCC(c4cc(Cl)cc(Cl)c4)(C(F)(F)F)C3)ccc21` (stereo not shown) [Compound E2, N-[5-[3-(3,5-dichlorophenyl)-3-(trifluoromethyl)-2,4-dihydropyrrol-5-yl]indan-1-yl]acetamide], in the data set with Diabrotica balteata [1] (setting [3]), the pest or weed control at 50 µg/mL is more than 80%. In addition, the pest or weed control at 200 ppm with Diabrotica balteata [1] (setting [4]) was not below 80%.

For the compound `C[C@H](NC(=O)C1CC1)c1ccc(C2(C(F)(F)F)CN=C(c3cc(Cl)c(Cl)c(Cl)c3)C2)cc1` (stereo partly drawn) [Compound B3, N-[(1S)-1-[4-[5-(3,4,5-trichlorophenyl)-3-(trifluoromethyl)-2,4-dihydropyrrol-3-yl]phenyl]ethyl]cyclopropanecarboxamide], the “% larval mortality” value with Diabrotica balteata [2] (application rate 0.3 mg/seed) was 80%. Also, in the data set with Diabrotica balteata [1] (setting [3]), the pest or weed control at 50 µg/mL is more than 80%. Further, the pest or weed control at 200 ppm in the data set with Diabrotica balteata [1] (setting [4]) was not below 80%.
